# Measurements: ChEMBL document CHEMBL5625237 (Eur J Med Chem, 2023)
# pEC50, pIC50: −log10 of the molar value.
# Key:
# [1] = molecular target: Replicase polyprotein 1ab (Severe acute respiratory syndrome coronavirus 2) (UniProt P0DTD1); assay: (§1) Inhibition of recombinant full length his tagged C-terminal SARS-CoV 2 main protease (M1 to Q307 residues) expressed in Escherichia coli BL21 (DE3) cells using LGSAVLQ-Rh110-dP as peptide substrate at 10 uM preincubated for 1 hr followed by substrate addition and measured after 24 hrs by fluorescence based analysis relative to control; conditions: time 25.0 hrs
# [2] = molecular target: T1, Replicase polyprotein 1ab (Severe acute respiratory syndrome coronavirus 2, UniProt P0DTD1); assay: as §1, with “substrate” for “substrate at 10 uM”, “analysis” for “analysis relative to control”
# SARS-CoV-2 [3] = assay: Antiviral activity against SARS CoV-2 (hCoV-19/Korea/KCDC06/2020) infected in human Calu-3 cells pre-infected with virus followed by compound addition and measured after 2 days post infection; type: functional, organism-based; conditions: Severe acute respiratory syndrome coronavirus 2, hCoV-19/Korea/KCDC06/2020, Calu-3, 48 h
# [4] = Cytotoxicity against human Calu-3 cells measured after 2 days by MTT assay; type: toxicity, cell-based; conditions: time 2 day
# [5] = Selectivity index, ratio of CC50 for human Calu-3 cells to EC50 for SARS CoV-2 (hCoV-19/Korea/KCDC06/2020) infected in human Calu-3 cells; type: toxicity, cell-based; conditions: read-out: Ratio CC50/EC50
# SARS-CoV-2 [6] = assay: Antiviral activity against SARS-CoV-2 (nCoV-2019BetaCoV/Wuhan/WIV04/2019) infected in african green monkey Vero E6 cells preincubated with compound for 1 hr followed by viral infection for 2 hrs and measured after 24 hrs post infection by real time PCR analysis; type: functional, organism-based; conditions: Severe acute respiratory syndrome coronavirus 2, nCoV-2019BetaCoV/Wuhan/WIV04/2019, Vero C1008
# [7] = molecular target: T1, Replicase polyprotein 1ab; assay: Inhibition of recombinant full length SARS-CoV-2 main protease expressed in Escherichia coli preincubated for 10 mins followed by substrate addition and measured every 30 secs for 10 mins
# SARS-CoV-2 [8] = assay: microbe, parasite or virus in culture; conditions: Severe acute respiratory syndrome coronavirus 2, USA/NYU-VC-003/2020, A549-ACE2
SMILES,pIC50 [2],other results
O=C(NCCCC1CCNCC1)n1cc(F)c(=O)[nH]c1=O,,inhibition [1]: 19%
CCCCCCNC(=O)n1cc(Br)c(=O)[nH]c1=O,5.13,
CCCCCCNC(=O)n1cc(CC)c(=O)[nH]c1=O,5.21,
CCC(CC)COC(=O)[C@H](C)N[P@](=O)(OC[C@H]1O[C@@](C#N)(c2ccc3c(N)ncnn23)[C@H](O)[C@@H]1O)Oc1ccccc1,,pEC50 (SARS-CoV-2 [3]): 6.24; CC50 at 48 h [4]: > 100 µM; selectivity ratio [5]: > 172
O=C(NCCCc1ccccc1)n1cc(F)c(=O)[nH]c1=O,,inhibition [1]: 27%
O=C(NCCCCC1CCCCC1)n1cc(F)c(=O)[nH]c1=O,,inhibition [1]: 31%
O=C(NCCC1CCCCC1)n1cc(F)c(=O)[nH]c1=O,5.31,
Cn1c(C(=O)NCCCNC(=O)n2cc(F)c(=O)[nH]c2=O)cc2ccccc21,5.82,
CCCCCCNC(=O)n1cc(C(F)(F)F)c(=O)[nH]c1=O,5.13,
CC(C)Cn1c(C(=O)NCCCNC(=O)n2ccc(=O)[nH]c2=O)cc2cc(Cl)ccc21,5.80,CC50 at 48 h [4]: > 100 µM
O=C(CC1CCCCC1)N1CCC(CCCNC(=O)n2cc(F)c(=O)[nH]c2=O)CC1,5.35,pEC50 (SARS-CoV-2 [6]): 6.14; pIC50 [7]: 7.40
CCCCCCNC(=O)n1cc(Cl)c(=O)[nH]c1=O,5.26,
Cc1cn(C(=O)NCCCNC(=O)c2cc3cc(Cl)ccc3n2CC(C)C)c(=O)[nH]c1=O,5.89,CC50 at 48 h [4]: > 100 µM
CC(C)Cn1c(C(=O)NCCCNC(=O)n2cc(F)c(=O)[nH]c2=O)cc2cc(F)ccc21,6.43,pEC50 (SARS-CoV-2 [3]): 4.54; CC50 at 48 h [4]: 98 µM; selectivity ratio [5]: 3.3
O=C(NCCC1CCCC1)n1cc(F)c(=O)[nH]c1=O,5.34,pEC50 (SARS-CoV-2 [3]): 4.31; CC50 at 48 h [4]: > 100 µM; selectivity ratio [5]: > 2
O=C(NCCCCc1ccccc1)n1cc(F)c(=O)[nH]c1=O,5.41,
CC(C)C[C@H](CNC(=O)c1cc2ccccc2[nH]1)CNC(=O)n1cc(F)c(=O)[nH]c1=O,5.36,
Cc1ccc2c(c1)cc(C(=O)NCCCNC(=O)n1cc(F)c(=O)[nH]c1=O)n2CC(C)C,5.92,
CCn1c(C(=O)NCCCNC(=O)n2cc(F)c(=O)[nH]c2=O)cc2ccccc21,5.72,
CCCCCCNC(=O)n1cc(C)c(=O)[nH]c1=O,5.12,

SMILES,pIC50 [2],other results
O=C(NCCCNC(=O)n1cc(F)c(=O)[nH]c1=O)c1ccc2cc[nH]c2c1,5.62,
O=C(NCCCCCCc1ccccc1)n1cc(F)c(=O)[nH]c1=O,5.42,
O=C(NCCCC1CCCCC1)n1cc(F)c(=O)[nH]c1=O,5.48,
CCCCCCNC(=O)n1cc(F)c(=O)[nH]c1=O [CARMOFUR],,pEC50 (SARS-CoV-2 [3]): < 4.00; CC50 at 48 h [4]: > 100 µM
COc1cccc2[nH]c(C(=O)N[C@@H](CC(C)C)C(=O)N[C@@H](C[C@@H]3CCNC3=O)C(=O)CO)cc12 [PF-00835231],,pEC50 (SARS-CoV-2 [8]): 6.66
O=C(Cc1ccccc1)N1CCC(CCCNC(=O)n2cc(F)c(=O)[nH]c2=O)CC1,5.41,
COc1ccc2c(c1)cc(C(=O)NCCCNC(=O)n1cc(F)c(=O)[nH]c1=O)n2CC(C)C,5.85,
CC(C)Cn1c(C(=O)NCCCNC(=O)n2cc(F)c(=O)[nH]c2=O)cc2cc(Cl)ccc21,6.46,pEC50 (SARS-CoV-2 [3]): 4.74; CC50 at 48 h [4]: > 100 µM; selectivity ratio [5]: > 5.5
Cc1cn(C(=O)NCCCNC(=O)c2cc3cc(F)ccc3n2CC(C)C)c(=O)[nH]c1=O,6.15,CC50 at 48 h [4]: > 100 µM
O=C(c1ccc2cc[nH]c2c1)N1CCC(CCCNC(=O)n2cc(F)c(=O)[nH]c2=O)CC1,5.51,
O=C(NCCCNC(=O)n1cc(F)c(=O)[nH]c1=O)c1cc2ccccc2[nH]1,5.59,
CC(C)Cn1c(C(=O)NCCCNC(=O)n2ccc(=O)[nH]c2=O)cc2cc(F)ccc21,6.24,CC50 at 48 h [4]: > 100 µM
O=C(NCCCNC(=O)n1cc(F)c(=O)[nH]c1=O)c1cc2ccccc2n1Cc1ccccc1,5.29,
CC(C)Cn1c(C(=O)NCCCNC(=O)n2cc(F)c(=O)[nH]c2=O)cc2cc(OC(F)(F)F)ccc21,5.60,
Cn1ccc2ccc(C(=O)NCCCNC(=O)n3cc(F)c(=O)[nH]c3=O)cc21,5.42,
CC(C)(C)OC(=O)N1CCC(CCCNC(=O)n2cc(F)c(=O)[nH]c2=O)CC1,5.47,
CC(C)(C)CC(=O)N1CCC(CCCNC(=O)n2cc(F)c(=O)[nH]c2=O)CC1,5.77,pEC50 (SARS-CoV-2 [6]): 6.28; pEC50 (SARS-CoV-2 [3]): 4.92; CC50 at 48 h [4]: 99 µM; selectivity ratio [5]: 8.3; pIC50 [7]: 7.28
CCCCCCNC(=O)n1ccc(=O)[nH]c1=O,5.01,
CC(C)Cn1c(C(=O)NCCCNC(=O)n2cc(F)c(=O)[nH]c2=O)cc2cc(C(F)(F)F)ccc21,6.10,
CC(C)Cn1c(C(=O)NCCCNC(=O)n2cc(F)c(=O)[nH]c2=O)cc2ccccc21,6.01,
